Data reported in patent publication US11377442B2, “Small molecule agonists and antagonists of NR2F6 activity” (ZANDER THERAPEUTICS, INC., priority 2016, dated 2022).
Where two headings read alike, the source gives them in different places.

Key:
Format in all cases: cell-based
HEK293 pGL4 = assay: Firefly_pGL signal, cmpd/DMSO (pGL4 control cells); conditions: Homo sapiens
Renilla = Renilla signal in NR2F6 agonist screening, cmpd/DMSO; conditions: Renilla
NR2F6 LBD = target: T1, NR2F6 LBD (Homo sapiens, UniProt P10588); assay: NR2F6 LBD transient transfection; conditions: LBD
T1 construct: expressed in transfected cells
T1 sequence (P10588 165-393 limits assumed): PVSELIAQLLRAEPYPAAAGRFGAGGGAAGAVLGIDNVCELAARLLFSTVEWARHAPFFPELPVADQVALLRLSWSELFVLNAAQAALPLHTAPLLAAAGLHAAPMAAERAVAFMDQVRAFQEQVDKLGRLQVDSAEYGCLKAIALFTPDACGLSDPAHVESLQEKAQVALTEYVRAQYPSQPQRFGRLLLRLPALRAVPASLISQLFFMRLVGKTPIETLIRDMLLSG
Experimental: FIGS. 27A and 27B show NR2F6 and LBD transient transfection, respectively, for Compound D28. Higher concentrations were excluded due to lower signal (tox effect). FIGS. 27C and 27D show NR2F6 and LBD transient transfection at different concentrations for different compounds. 9 compounds were tested on LBD transfected cells (40, 10, 2 and 0.5 μM, 4 replicates). FIGS. 27E and 27F show toxicity of Compound D28. 9 compounds were tested for cytotoxicity on LBD transfected cells (40, 10, 2 and 0.5 μM, 4 replicates). […] Cytotoxicity normalized to DMSO is shown in FIG. 27F (0% cytotoxicity corresponds to DMSO signal, 100%—zero signal).
FIGS. 34A and 34B show NR2F6 LBD transient transfection for Compound E21. 9 compounds were tested on LBD transfected cells (40, 10, 2 and 0.5 μM, 4 replicates). FIGS. 34C and 34D show NR2F6 and LBD transient transfection at different concentrations for different compounds. 9 compounds were tested on LBD transfected cells (40, 10, 2 and 0.5 μM, 4 replicates). […] Cytotoxicity normalized to DMSO is shown in FIG. 34D (0% cytotoxicity corresponds to DMSO signal, 100%—zero signal). All compounds were tested at 5, 10, 25 and 50 uM in duplicates. Dog PBMC (1×10^6 cells/mL) were activated by 10 ng/mL PMA+500 ng/mL ionomycin. Data were normalized to controls with (100%)/without (0%) PMA+ionomycin activation.
FIGS. 39A and 39B show NR2F6 LBD transient transfection for Compound F1. 9 compounds were tested on LBD transfected cells (40, 10, 2 and 0.5 μM, 4 replicates). FIGS. 39C and 39D show toxicity of NR2F6 LBD transient transfection. 9 compounds were tested for cytotoxicity on LBD transfected cells (40, 10, 2 and 0.5 μM, 4 replicates). Tox effect causes lower signal compared to DMSO. Cytotoxicity normalized to DMSO is shown in FIG. 39D (0% cytotoxicity corresponds to DMSO signal, 100%—zero signal).

NR2F6 = target: T2, NR2F6 (Homo sapiens, UniProt P10588); assay: NR2F6 agonist screening, Firefly signal cmpd/DMSO
T2 construct: expressed in transfected cells; also transient transfection
T2 sequence (P10588 1-404): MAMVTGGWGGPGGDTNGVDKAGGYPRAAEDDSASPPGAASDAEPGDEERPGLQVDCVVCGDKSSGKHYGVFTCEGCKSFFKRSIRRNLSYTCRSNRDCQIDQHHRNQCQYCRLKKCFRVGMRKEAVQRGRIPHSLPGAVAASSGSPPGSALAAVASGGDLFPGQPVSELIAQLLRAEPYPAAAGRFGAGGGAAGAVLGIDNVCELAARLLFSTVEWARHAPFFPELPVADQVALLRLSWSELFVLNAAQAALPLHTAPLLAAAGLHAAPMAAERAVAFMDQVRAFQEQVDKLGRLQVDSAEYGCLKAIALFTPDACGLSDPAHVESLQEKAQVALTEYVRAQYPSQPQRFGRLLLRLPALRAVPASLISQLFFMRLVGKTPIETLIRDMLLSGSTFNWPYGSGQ

[1] = F4, read-out: Renilla, F4, cmpd/DMSO (mean)
[2] = F4, 1% FBS, read-out: Renilla, F4, 1% FBS, cmpd/DMSO (mean)
[3] = F4, 10% FBS, read-out: Renilla, F4, 10% FBS, cmpd/DMSO (mean)
[4] = HEK293, Table 14, 2 uM, read-out: Firefly pGL4, cmpd/DMSO (mean)
[5] = HEK293, Table 14, 10 uM, read-out: Firefly pGL4, cmpd/DMSO (mean)
[6] = HEK293, Table 14, 40 uM, read-out: Firefly pGL4, cmpd/DMSO (mean)
[7] = Table 14, read-out: Renilla F4, cmpd/DMSO (mean)

SMILES: O=S1(=O)C[C@H](NC2CCCCC2)[C@@H](S(=O)(=O)c2ccc(Cl)cc2)C1 [Compound D124]
- fold induction at 0.5 µM (HEK293 pGL4; HEK293, 0.5 uM, pGL4, read-out: Firefly pGL4, cmpd/DMSO (mean)): 1.4
- fold induction at 2 µM (HEK293 pGL4; HEK293, 2 uM, pGL4, read-out: Firefly pGL4, cmpd/DMSO (mean)): 1.5
- fold induction at 10 µM (HEK293 pGL4; HEK293, 10 uM, pGL4, read-out: Firefly pGL4, cmpd/DMSO (mean)): 3.1
- fold induction at 40 µM (HEK293 pGL4; HEK293, 40 uM, pGL4, read-out: Firefly pGL4, cmpd/DMSO (mean)): 0.7
- fold induction at 0.5 µM (HEK293 pGL4; HEK293, pGL4, 1% FBS, 0.5 uM, read-out: Firefly, pGL4, 1% FBS, cmpd/DMSO (mean)): 1.1
- fold induction at 2 µM (HEK293 pGL4; HEK293, pGL4, 1% FBS, 2 uM, read-out: Firefly, pGL4, 1% FBS, cmpd/DMSO (mean)): 1.6
- fold induction at 10 µM (HEK293 pGL4; HEK293, pGL4, 1% FBS, 10 uM, read-out: Firefly, pGL4, 1% FBS, cmpd/DMSO (mean)): 2.4
- fold induction at 40 µM (HEK293 pGL4; HEK293, pGL4, 1% FBS, 40 uM, read-out: Firefly, pGL4, 1% FBS, cmpd/DMSO (mean)): 0.8
- fold induction at 0.5 µM (HEK293 pGL4; HEK293, pGL4, 10% FBS, 0.5 uM, read-out: Firefly, pGL4, 10% FBS, cmpd/DMSO (mean)): 1.2
- fold induction at 2 µM (HEK293 pGL4; HEK293, pGL4, 10% FBS, 2 uM, read-out: Firefly, pGL4, 10% FBS, cmpd/DMSO (mean)): 1.4
- fold induction at 10 µM (HEK293 pGL4; HEK293, pGL4, 10% FBS, 10 uM, read-out: Firefly, pGL4, 10% FBS, cmpd/DMSO (mean)): 2.2
- fold induction at 40 µM (HEK293 pGL4; HEK293, pGL4, 10% FBS, 40 uM, read-out: Firefly, pGL4, 10% FBS, cmpd/DMSO (mean)): 3.2
- fold induction at 0.5 µM (Renilla; [1]): 1.1
- fold induction at 2 µM (Renilla; [1]): 1.2
- fold induction at 10 µM (Renilla; [1]): 1.5
- fold induction at 40 µM (Renilla; [1]): 1.8
- fold induction at 0.5 µM (Renilla; [2]): 1.1
- fold induction at 2 µM (Renilla; [2]): 1.2
- fold induction at 10 µM (Renilla; [2]): 1.5
- fold induction at 40 µM (Renilla; [2]): 1.6
- fold induction at 0.5 µM (Renilla; [3]): 1
- fold induction at 2 µM (Renilla; [3]): 1
- fold induction at 10 µM (Renilla; [3]): 1.3
- fold induction at 40 µM (Renilla; [3]): 2.6
- Firefly LBD, cmpd/DMSO (mean) (NR2F6 LBD; 0.5 uM): 1.4
- Firefly LBD, cmpd/DMSO (mean) (NR2F6 LBD; 2 uM): 1.6
- Firefly LBD, cmpd/DMSO (mean) (NR2F6 LBD; 10 uM): 3.6
- Firefly LBD, cmpd/DMSO (mean) (NR2F6 LBD; 40 uM): 0.5
- Firefly F4, cmpd/DMSO (mean) (NR2F6; 0.5 uM, F4): 1.6
- Firefly F4, cmpd/DMSO (mean) (NR2F6; 2 uM, F4): 1.3
- Firefly F4, cmpd/DMSO (mean) (NR2F6; 10 uM, F4): 4.6
- Firefly F4, cmpd/DMSO (mean) (NR2F6; 40 uM, F4): 2.1
- F4, Firefly/Renilla for S/B(F4) > 3 (NR2F6; 1% FBS, 10 uM): 2.0
- Firefly, F4/pGL4 for S/B(F4) > 3 (NR2F6; 1% FBS, 10 uM): 1.3
- F4, Firefly/Renilla for S/B(F4) > 3 (NR2F6; 10% FBS, 40 uM): 1.7
- Firefly, F4/pGL4 for S/B(F4) > 3 (NR2F6; 10% FBS, 40 uM): 1.4
- Firefly, F4, 1% FBS, cmpd/DMSO (mean) (NR2F6; F4, 1% FBS, 0.5 uM): 0.9
- Firefly, F4, 1% FBS, cmpd/DMSO (mean) (NR2F6; F4, 1% FBS, 2 uM): 1.9
- Firefly, F4, 1% FBS, cmpd/DMSO (mean) (NR2F6; F4, 1% FBS, 10 uM): 3.1
- Firefly, F4, 1% FBS, cmpd/DMSO (mean) (NR2F6; F4, 1% FBS, 40 uM): 0.4
- Firefly, F4, 10% FBS, cmpd/DMSO (mean) (NR2F6; F4, 10% FBS, 0.5 uM): 1.2
- Firefly, F4, 10% FBS, cmpd/DMSO (mean) (NR2F6; F4, 10% FBS, 2 uM): 1.0
- Firefly, F4, 10% FBS, cmpd/DMSO (mean) (NR2F6; F4, 10% FBS, 10 uM): 2.3
- Firefly, F4, 10% FBS, cmpd/DMSO (mean) (NR2F6; F4, 10% FBS, 40 uM): 4.5

SMILES: Cc1ccc(NC(=O)c2noc3c2CCC3)cc1C [Compound C301]
- fold induction at 2 µM (HEK293 pGL4; [4]): 2.4
- fold induction at 10 µM (HEK293 pGL4; [5]): 1.6
- fold induction at 40 µM (HEK293 pGL4; [6]): 1.1
- fold induction at 2 µM (Renilla; [7]): 1.1
- fold induction at 10 µM (Renilla; [7]): 0.7
- fold induction at 40 µM (Renilla; [7]): 1
- Firefly F4, cmpd/DMSO (mean) (NR2F6; Table 14, 2 uM): 1.2
- Firefly F4, cmpd/DMSO (mean) (NR2F6; Table 14, 10 uM): 1.0
- Firefly F4, cmpd/DMSO (mean) (NR2F6; Table 14, 40 uM): 1.0

SMILES: Cc1ccc(NC(=O)c2noc3c2CCCC3)cc1C [Compound C302]
- fold induction at 2 µM (HEK293 pGL4; [4]): 1.8
- fold induction at 10 µM (HEK293 pGL4; [5]): 1.4
- fold induction at 40 µM (HEK293 pGL4; [6]): 0.8
- fold induction at 2 µM (Renilla; [7]): 0.7
- fold induction at 10 µM (Renilla; [7]): 1.1
- fold induction at 40 µM (Renilla; [7]): 1
- Firefly F4, cmpd/DMSO (mean) (NR2F6; Table 14, 2 uM): 1.2
- Firefly F4, cmpd/DMSO (mean) (NR2F6; Table 14, 10 uM): 0.9
- Firefly F4, cmpd/DMSO (mean) (NR2F6; Table 14, 40 uM): 0.9

SMILES: Cc1cc(C)n2nc(CNS(=O)(=O)c3ccc(F)cc3)nc2n1 [Compound E12]
- fold induction at 2 µM (HEK293 pGL4; [4]): 0.9
- fold induction at 10 µM (HEK293 pGL4; [5]): 0.8
- fold induction at 40 µM (HEK293 pGL4; [6]): 1
- fold induction at 2 µM (Renilla; [7]): 0.7
- fold induction at 10 µM (Renilla; [7]): 0.7
- fold induction at 40 µM (Renilla; [7]): 1
- Firefly F4, cmpd/DMSO (mean) (NR2F6; Table 14, 2 uM): 0.7
- Firefly F4, cmpd/DMSO (mean) (NR2F6; Table 14, 10 uM): 0.9
- Firefly F4, cmpd/DMSO (mean) (NR2F6; Table 14, 40 uM): 0.5

SMILES: CCn1cc2c(n1)c(=O)n(Cc1ccccc1)c(=O)n2CC(=O)Nc1ccc(Br)cc1 [Compound L1]
- fold induction at 2 µM (HEK293 pGL4; [4]): 0.8
- fold induction at 10 µM (HEK293 pGL4; [5]): 0.4
- fold induction at 40 µM (HEK293 pGL4; [6]): 0.8
- fold induction at 2 µM (Renilla; [7]): 0.8
- fold induction at 10 µM (Renilla; [7]): 0.8
- fold induction at 40 µM (Renilla; [7]): 0.7
- Firefly F4, cmpd/DMSO (mean) (NR2F6; Table 14, 2 uM): 0.9
- Firefly F4, cmpd/DMSO (mean) (NR2F6; Table 14, 10 uM): 0.5
- Firefly F4, cmpd/DMSO (mean) (NR2F6; Table 14, 40 uM): 0.5

SMILES: Cc1ccc(NC(=O)c2noc3c2CC(C)CC3)cc1C (centres unmarked) [Compound E53]
- fold induction at 2 µM (HEK293 pGL4; [4]): 1.5
- fold induction at 10 µM (HEK293 pGL4; [5]): 1.4
- fold induction at 40 µM (HEK293 pGL4; [6]): 1.6
- fold induction at 2 µM (Renilla; [7]): 0.9
- fold induction at 10 µM (Renilla; [7]): 0.8
- fold induction at 40 µM (Renilla; [7]): 1.1
- cytotox effect (decreasing both renilla and firefly activity) (NR2F6; NR2F6 agonist activity confirmation): strong cytotox effect
- Firefly F4, cmpd/DMSO (mean) (NR2F6; Table 14, 2 uM): 1.0
- Firefly F4, cmpd/DMSO (mean) (NR2F6; Table 14, 10 uM): 1.1
- Firefly F4, cmpd/DMSO (mean) (NR2F6; Table 14, 40 uM): 1.4
- increase of firefly activity (NR2F6; at 10 uM): 6 times
- firefly signal over DMSO level (NR2F6; at 10 uM and 50 uM): ~3 times
